Source: ChEMBL document CHEMBL1150976, “The selectivity of protein kinase inhibitors: a further update” (Biochem J, 2007)

Assays:
[1] = target: T1, Serine/threonine-protein kinase Nek2 (Homo sapiens) (UniProt P51955); assay: Percentage NEK2a activity remaining in the presence of 0.01uM inhibitor
T1 sequence (whole entry): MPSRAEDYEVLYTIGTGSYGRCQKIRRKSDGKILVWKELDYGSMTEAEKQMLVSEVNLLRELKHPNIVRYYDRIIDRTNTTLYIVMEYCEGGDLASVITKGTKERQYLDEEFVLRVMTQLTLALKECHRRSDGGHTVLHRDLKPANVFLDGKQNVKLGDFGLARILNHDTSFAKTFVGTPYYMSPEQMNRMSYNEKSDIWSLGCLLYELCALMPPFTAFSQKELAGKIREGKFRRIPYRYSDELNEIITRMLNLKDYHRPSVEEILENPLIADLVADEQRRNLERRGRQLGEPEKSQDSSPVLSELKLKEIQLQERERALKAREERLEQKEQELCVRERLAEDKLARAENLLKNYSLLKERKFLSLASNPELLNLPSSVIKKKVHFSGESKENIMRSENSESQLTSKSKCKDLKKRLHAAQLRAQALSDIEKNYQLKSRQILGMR

[2] = target: Myosin light chain kinase, smooth muscle (Homo sapiens, UniProt Q15746); assay: Percentage SmMLCK activity remaining in the presence of 0.01uM inhibitor
Chain of Myosin light chain kinase, smooth muscle (Q15746 whole entry): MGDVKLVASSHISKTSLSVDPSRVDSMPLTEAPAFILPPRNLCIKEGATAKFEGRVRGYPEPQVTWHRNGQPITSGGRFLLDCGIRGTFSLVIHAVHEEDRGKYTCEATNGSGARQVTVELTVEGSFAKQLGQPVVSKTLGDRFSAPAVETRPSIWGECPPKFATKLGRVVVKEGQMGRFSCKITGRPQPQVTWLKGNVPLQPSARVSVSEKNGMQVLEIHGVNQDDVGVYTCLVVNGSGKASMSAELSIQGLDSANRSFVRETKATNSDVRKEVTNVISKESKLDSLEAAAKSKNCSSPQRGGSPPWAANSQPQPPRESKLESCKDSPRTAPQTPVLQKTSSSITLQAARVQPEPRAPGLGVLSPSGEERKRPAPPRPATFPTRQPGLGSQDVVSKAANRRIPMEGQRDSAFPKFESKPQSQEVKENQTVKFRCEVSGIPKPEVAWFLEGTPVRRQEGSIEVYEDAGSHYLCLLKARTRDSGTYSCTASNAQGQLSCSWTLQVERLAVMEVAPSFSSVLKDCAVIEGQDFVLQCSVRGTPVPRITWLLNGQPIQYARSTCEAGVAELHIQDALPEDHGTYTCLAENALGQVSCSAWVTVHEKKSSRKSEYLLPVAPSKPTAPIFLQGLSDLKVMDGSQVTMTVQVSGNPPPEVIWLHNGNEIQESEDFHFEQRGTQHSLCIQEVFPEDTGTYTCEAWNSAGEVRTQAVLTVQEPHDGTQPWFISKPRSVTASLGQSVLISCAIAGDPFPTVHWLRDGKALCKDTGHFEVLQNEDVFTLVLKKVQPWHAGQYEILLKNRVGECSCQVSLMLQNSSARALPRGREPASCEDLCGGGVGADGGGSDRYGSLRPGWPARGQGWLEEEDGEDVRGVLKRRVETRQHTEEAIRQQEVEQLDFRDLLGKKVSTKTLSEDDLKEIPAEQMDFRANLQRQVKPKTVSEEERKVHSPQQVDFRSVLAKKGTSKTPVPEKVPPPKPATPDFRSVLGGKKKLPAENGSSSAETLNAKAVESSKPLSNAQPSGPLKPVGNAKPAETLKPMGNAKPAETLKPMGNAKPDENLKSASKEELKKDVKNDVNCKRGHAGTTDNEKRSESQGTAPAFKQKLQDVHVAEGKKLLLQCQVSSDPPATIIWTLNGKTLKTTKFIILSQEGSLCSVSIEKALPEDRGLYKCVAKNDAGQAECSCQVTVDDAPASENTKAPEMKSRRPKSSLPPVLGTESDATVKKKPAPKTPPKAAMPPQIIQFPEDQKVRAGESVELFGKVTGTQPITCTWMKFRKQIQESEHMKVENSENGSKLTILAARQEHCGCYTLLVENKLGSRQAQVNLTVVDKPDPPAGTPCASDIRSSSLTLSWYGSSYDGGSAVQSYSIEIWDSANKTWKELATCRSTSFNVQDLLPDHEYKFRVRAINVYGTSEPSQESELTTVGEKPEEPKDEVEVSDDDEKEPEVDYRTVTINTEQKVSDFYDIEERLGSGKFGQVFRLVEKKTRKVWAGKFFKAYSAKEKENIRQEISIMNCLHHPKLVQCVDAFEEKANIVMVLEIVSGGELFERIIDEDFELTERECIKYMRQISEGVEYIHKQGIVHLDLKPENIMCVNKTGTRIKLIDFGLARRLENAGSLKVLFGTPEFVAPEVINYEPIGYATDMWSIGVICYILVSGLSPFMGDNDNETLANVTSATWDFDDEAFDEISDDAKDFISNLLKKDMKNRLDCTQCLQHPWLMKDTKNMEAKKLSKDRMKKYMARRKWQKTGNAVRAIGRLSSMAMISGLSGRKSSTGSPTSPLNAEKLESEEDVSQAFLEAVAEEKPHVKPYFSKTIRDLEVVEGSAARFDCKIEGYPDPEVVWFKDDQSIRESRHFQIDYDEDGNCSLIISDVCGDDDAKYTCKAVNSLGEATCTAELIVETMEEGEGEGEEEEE

[3] = target: MAP kinase-activated protein kinase 2 (Homo sapiens) (UniProt P49137); assay: Percentage MAPKAPK2 activity remaining in the presence of […]uM inhibitor; settings: at 25 µM
Chain of MAP kinase-activated protein kinase 2 (Homo sapiens) (P49137 whole entry, looked up): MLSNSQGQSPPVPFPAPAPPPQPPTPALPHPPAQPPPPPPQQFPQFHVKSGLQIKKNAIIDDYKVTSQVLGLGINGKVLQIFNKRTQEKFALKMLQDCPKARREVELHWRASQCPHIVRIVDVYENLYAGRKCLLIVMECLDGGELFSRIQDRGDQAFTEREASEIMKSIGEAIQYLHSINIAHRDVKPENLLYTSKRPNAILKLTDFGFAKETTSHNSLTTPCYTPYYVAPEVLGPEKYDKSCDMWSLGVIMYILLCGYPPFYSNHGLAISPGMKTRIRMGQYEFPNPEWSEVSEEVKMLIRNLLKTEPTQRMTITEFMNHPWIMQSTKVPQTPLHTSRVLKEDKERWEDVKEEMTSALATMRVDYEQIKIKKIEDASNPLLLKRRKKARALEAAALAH

[4] = target: Mitogen-activated protein kinase 1 (Homo sapiens) (UniProt P28482); assay: Percentage ERK2 activity remaining in the presence of 25uM inhibitor
Chain of Mitogen-activated protein kinase 1 (Homo sapiens) (P28482 whole entry): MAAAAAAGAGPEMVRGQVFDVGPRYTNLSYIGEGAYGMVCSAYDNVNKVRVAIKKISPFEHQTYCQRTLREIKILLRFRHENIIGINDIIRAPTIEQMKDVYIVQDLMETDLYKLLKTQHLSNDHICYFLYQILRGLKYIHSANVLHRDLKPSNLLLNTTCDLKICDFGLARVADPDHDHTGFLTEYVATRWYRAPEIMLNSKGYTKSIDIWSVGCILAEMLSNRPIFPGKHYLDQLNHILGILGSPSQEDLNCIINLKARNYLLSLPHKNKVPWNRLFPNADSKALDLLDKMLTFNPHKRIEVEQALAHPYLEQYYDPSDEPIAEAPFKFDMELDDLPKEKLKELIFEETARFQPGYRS

[5] = species on record: Homo sapiens; assay: Percentage PHK activity remaining in the presence of 25uM inhibitor
[6] = target: T2, Protein kinase C zeta type (Homo sapiens) (UniProt Q05513); assay: Percentage PKCzeta activity remaining in the presence of 25uM inhibitor
T2 sequence (whole entry): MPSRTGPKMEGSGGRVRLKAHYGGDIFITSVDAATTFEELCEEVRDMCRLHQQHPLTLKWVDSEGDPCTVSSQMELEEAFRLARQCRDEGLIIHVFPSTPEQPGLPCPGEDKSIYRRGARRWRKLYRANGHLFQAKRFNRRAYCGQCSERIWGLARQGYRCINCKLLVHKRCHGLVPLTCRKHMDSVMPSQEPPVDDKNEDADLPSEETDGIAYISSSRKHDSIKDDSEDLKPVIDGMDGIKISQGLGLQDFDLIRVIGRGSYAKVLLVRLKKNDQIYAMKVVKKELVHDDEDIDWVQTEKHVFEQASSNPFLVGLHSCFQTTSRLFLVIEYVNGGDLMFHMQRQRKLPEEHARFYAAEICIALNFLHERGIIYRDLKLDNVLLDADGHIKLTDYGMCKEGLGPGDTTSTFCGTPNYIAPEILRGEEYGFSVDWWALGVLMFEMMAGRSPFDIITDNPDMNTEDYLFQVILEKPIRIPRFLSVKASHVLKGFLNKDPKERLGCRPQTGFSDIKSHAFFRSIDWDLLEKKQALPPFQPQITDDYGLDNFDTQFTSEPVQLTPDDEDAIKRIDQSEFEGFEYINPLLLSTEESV

[7] = target: MAP kinase-activated protein kinase 3 (Homo sapiens) (UniProt Q16644); assay: Percentage MAPKAPK3 activity remaining in the presence of […]uM inhibitor; settings: at 25 µM
Chain of MAP kinase-activated protein kinase 3 (Homo sapiens) (Q16644 whole entry, looked up): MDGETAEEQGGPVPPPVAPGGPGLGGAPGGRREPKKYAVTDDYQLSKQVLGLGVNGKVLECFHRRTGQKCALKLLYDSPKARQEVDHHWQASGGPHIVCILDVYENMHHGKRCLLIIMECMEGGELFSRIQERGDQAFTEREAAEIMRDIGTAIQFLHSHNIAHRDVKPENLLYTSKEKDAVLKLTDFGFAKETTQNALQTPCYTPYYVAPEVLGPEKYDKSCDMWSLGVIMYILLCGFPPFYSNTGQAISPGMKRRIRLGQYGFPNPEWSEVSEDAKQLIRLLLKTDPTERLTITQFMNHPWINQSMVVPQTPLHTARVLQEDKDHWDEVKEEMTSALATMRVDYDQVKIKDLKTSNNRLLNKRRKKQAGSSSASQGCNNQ

[8] = target: T3, Mitogen-activated protein kinase 12 (Homo sapiens) (UniProt P53778); assay: Percentage p38-gamma activity remaining in the presence of 25uM inhibitor
T3 sequence (whole entry): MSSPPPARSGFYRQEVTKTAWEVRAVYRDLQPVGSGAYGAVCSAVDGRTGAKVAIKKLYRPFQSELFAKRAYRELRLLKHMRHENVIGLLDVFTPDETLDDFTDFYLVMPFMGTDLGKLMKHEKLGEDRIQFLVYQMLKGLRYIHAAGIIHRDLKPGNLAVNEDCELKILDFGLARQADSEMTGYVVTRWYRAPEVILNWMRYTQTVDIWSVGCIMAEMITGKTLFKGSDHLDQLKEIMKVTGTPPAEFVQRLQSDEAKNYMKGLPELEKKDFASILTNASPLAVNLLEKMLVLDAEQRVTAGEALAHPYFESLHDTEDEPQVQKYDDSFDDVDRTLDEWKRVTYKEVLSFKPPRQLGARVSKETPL

[9] = target: Proto-oncogene tyrosine-protein kinase Src (Gallus gallus) (UniProt P00523); assay: Percentage Src activity remaining in the presence of 25uM inhibitor
[10] = species on record: Rattus norvegicus; assay: Percentage AMPK activity remaining in the presence of 25uM inhibitor
[11] = target: Ribosomal protein S6 kinase alpha-3 (Homo sapiens) (UniProt P51812); assay: Percentage RSK2 activity remaining in the presence of 25uM inhibitor
Chain of Ribosomal protein S6 kinase alpha-3 (Homo sapiens) (P51812 whole entry): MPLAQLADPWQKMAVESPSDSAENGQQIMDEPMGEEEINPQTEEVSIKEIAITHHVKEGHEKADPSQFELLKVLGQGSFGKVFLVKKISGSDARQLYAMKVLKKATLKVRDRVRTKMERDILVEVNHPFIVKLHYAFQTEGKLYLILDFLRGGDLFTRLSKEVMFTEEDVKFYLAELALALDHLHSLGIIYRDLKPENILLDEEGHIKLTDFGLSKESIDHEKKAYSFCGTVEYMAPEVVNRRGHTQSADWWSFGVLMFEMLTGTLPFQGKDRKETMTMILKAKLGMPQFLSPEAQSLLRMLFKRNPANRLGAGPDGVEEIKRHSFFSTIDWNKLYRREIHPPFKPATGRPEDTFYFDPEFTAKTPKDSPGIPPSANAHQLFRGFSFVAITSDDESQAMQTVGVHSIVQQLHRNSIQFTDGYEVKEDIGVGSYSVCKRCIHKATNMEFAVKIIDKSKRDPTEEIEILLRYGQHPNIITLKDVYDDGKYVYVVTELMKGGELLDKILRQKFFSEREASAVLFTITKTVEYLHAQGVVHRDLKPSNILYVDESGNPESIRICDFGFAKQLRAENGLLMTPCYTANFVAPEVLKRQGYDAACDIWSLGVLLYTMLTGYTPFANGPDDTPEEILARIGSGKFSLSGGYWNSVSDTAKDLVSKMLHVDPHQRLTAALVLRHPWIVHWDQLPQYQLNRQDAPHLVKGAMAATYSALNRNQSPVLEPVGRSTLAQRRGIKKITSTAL

[12] = target: MAP kinase-interacting serine/threonine-protein kinase 1 (Homo sapiens) (UniProt Q9BUB5); assay: Percentage MNK1 activity remaining in the presence of 25uM inhibitor
Chain of MAP kinase-interacting serine/threonine-protein kinase 1 (Homo sapiens) (Q9BUB5 whole entry, looked up): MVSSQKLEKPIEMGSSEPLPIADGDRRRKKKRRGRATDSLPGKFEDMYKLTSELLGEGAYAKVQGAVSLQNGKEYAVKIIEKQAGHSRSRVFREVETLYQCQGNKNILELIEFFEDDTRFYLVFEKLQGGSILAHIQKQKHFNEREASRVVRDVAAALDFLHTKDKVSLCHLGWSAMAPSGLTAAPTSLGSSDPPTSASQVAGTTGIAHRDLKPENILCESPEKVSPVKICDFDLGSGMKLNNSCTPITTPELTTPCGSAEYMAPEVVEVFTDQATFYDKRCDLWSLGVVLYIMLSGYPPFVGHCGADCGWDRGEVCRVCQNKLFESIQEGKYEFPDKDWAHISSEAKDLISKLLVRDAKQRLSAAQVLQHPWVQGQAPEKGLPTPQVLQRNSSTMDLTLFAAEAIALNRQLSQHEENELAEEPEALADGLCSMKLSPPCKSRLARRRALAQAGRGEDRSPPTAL

[13] = target: T4, Dual specificity tyrosine-phosphorylation-regulated kinase 3 (Homo sapiens) (UniProt O43781); assay: Percentage DYRK3 activity remaining in the presence of 25uM inhibitor
T4 sequence (whole entry): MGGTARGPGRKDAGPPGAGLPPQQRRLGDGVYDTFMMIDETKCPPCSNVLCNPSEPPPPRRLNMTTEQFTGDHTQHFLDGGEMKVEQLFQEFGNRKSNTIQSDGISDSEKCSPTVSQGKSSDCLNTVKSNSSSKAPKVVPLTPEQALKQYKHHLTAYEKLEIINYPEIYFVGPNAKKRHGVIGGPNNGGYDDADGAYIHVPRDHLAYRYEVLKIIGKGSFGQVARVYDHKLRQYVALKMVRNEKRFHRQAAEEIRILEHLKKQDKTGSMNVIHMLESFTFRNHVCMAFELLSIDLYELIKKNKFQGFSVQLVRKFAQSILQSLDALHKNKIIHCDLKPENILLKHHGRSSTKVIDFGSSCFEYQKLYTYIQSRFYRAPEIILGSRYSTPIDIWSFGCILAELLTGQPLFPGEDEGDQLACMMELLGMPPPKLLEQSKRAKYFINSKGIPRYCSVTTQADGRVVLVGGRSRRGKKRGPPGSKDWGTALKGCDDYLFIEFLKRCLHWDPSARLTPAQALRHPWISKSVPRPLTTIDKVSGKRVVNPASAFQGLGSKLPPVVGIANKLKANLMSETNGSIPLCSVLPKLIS

[14] = target: Serine/threonine-protein kinase Nek7 (Homo sapiens) (UniProt Q8TDX7); assay: Percentage NEK7 activity remaining in the presence of 25uM inhibitor
Chain of Serine/threonine-protein kinase Nek7 (Homo sapiens) (Q8TDX7 whole entry, looked up): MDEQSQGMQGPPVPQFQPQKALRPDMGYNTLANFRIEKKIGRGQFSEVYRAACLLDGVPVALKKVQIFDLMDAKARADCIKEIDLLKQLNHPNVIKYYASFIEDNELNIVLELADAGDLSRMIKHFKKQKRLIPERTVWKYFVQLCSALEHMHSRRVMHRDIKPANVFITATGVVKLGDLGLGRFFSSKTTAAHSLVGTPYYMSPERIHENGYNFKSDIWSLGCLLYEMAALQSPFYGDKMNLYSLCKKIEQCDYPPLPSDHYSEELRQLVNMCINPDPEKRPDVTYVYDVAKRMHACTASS

| Structure (SMILES) | Activity [1] | Activity [2] | Activity [3] | Activity [4] | Activity [5] | Activity [6] | Activity [7] | Activity [8] | Activity [9] | Activity [10] | Activity [11] | Activity [12] | Activity [13] | Activity [14] | Activity ([10]; filed as antagonist) | Activity ([12]; filed as antagonist) | Activity ([13]; filed as antagonist) |
| --- | --- | --- | --- | --- | --- | --- | --- | --- | --- | --- | --- | --- | --- | --- | --- | --- | --- |
| O=C(NCCCNc1nc(Nc2cccc(NC(=O)N3CCCC3)c2)ncc1I)c1cccs1 | 92% | 110% | – | – | – | – | – | – | – | – | – | – | – | – | – | – | – |
| CN[C@@H]1C[C@H]2O[C@@](C)([C@@H]1OC)n1c3ccccc3c3c4c(c5c6ccccc6n2c5c31)C(=O)N[C@H]4O (stereo in doubt) | 85% | 83% | – | – | – | – | – | – | – | – | – | – | – | – | – | – | – |
| COc1cc(OC)c(/C=C2/C(=O)Nc3ccccc32)c(OC)c1 | – | – | 88% | 93% | 86% | 80% | 94% | 93% | 70% | 71% | 89% | 79% | 89% | 103% | – | – | – |
| NCCNS(=O)(=O)c1ccc(Cl)c2ccncc12 | – | – | 85% | 100% | 72% | 52% | 86% | 102% | 92% | – | 63% | – | – | 102% | 29% | 26% | 46% |
